{"source": "patent US8252841B2", "about": "“Methods of inhibiting bacterial virulence and compounds relating thereto” (priority 2007, dated 2012)", "key": {"EHEC": {"test_system": "EHEC", "parameters": "species or system New Zealand White rabbits", "settings": "rabbit, in vivo"}, "EHEC strain 8624 [1]": {"test_system": "EHEC strain 8624", "format": "cell-based, enterohemorrhagic E. coli (EHEC)"}, "[2]": {"test_system": "F. tularensis SCHU S4 in J774 murine macrophages", "format": "cell-based, Francisella tularensis"}, "[3]": {"test_system": "bacterial cells (strain MCAmp)", "experiment": "Secondary screen with bla::lacZ chromosomal reporter to eliminate toxic compounds and general transcription inhibitors"}, "[4]": {"test_system": "S. typhimurium strain SL1344", "parameters": "species or system mice (129×1/SvJ)", "settings": "mouse, in vivo"}, "[5]": {"test_system": "F. tularensis virulence genes", "format": "cell-based, Francisella tularensis"}, "QseC [6]": {"target": "T1, QseC (Escherichia coli O157:H7, UniProt Q8X524)", "T1 construct": "His (C); made in house; host or cells: E. coli (arabinose-induced, pVS155), nickel column purification", "T1 sequence (Q8X524 whole entry)": "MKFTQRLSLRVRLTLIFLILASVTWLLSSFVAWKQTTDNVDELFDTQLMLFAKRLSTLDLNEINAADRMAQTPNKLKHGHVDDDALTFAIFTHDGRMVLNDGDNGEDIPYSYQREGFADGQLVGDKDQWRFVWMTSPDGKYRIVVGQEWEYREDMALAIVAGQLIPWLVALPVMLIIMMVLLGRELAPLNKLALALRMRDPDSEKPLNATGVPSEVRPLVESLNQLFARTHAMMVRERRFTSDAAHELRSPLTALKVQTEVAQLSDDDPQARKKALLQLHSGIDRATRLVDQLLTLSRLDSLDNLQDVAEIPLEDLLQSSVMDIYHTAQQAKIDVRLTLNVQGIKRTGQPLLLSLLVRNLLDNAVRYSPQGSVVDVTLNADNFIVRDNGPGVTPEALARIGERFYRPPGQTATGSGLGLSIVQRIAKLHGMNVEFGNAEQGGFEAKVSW", "experiment": "Binding of tritiated norepinephrine to QseC in liposomes", "parameters": "species or system E. coli", "settings": "5 μM tritiated NE"}, "EHEC AE lesion formation": {"test_system": "EHEC AE lesion formation", "experiment": "Fluorescein actin staining (FAS) test, AE lesion formation on HeLa cells", "format": "cell-based, enterohemorrhagic E. coli (EHEC)"}, "[7]": {"experiment": "Pharmacokinetic analysis in mice"}, "[8]": {"experiment": "Toxicology studies in mice", "settings": "20 mg/kg oral gavage daily for 5 days"}, "EHEC strain 8624 [9]": {"test_system": "EHEC strain 8624", "experiment": "Western blot of EHEC secreted proteins EspA and EspB", "format": "cell-based, enterohemorrhagic E. coli (EHEC)", "settings": "50 μM epinephrine plus 5 nM or 5 pM LED209"}, "QseC [10]": {"target": "T1, QseC", "experiment": "QseC autophosphorylation in liposomes", "format": "biochemical, E. coli"}, "sifA virulence gene": {"test_system": "sifA virulence gene", "format": "cell-based, Salmonella typhimurium"}, "[11]": {"test_system": "Salmonella typhimurium strain SL1344", "format": "cell-based"}, "[12]": {"test_system": "F. tularensis strain SCHU S4", "settings": "mouse, in vivo"}, "[13]": {"test_system": "β1, β2 and β3 adrenergic receptors", "experiment": "Live-cell intracellular cAMP (EPAC-based BRET reporter) in HEK293 cells", "parameters": "species or system human"}, "[14]": {"test_system": "EHEC virulence genes (ler, eae, flhDC, stx2A)", "format": "cell-based, enterohemorrhagic E. coli (EHEC)"}, "F. tularensis strain LVS": {"test_system": "F. tularensis strain LVS", "format": "cell-based, Francisella tularensis"}, "[15]": {"settings": "CD-1 female mice, 20, 10 and 5 mg/kg IV bolus"}}, "note": "Where “and” joins values, the source holds several entries; their conditions need not be identical. Equal entries are not always repeated. Entries after “also recorded” stand apart in the source; their conditions may differ."}
{"smiles": "CC(=O)Nc1ccc(S(=O)(=O)Nc2ccccc2)cc1", "values": [{"measurement": "melting point", "value": "209 to 210", "unit": "°C"}]}
{"smiles": "O=S(=O)(Nc1ccccc1)c1ccc(NC(=S)Nc2ccccc2)cc1", "note": "[LED209, N-phenyl-4-[[(phenylamino)thioxomethyl]amino]benzenesulfonamide]", "values": [{"measurement": "EHEC colonization of the intestine", "setting": "EHEC", "value": "modest (and non-statistically significant) reduction"}, {"measurement": "EHEC colonization, colon", "setting": "EHEC; 20 mg/kg", "value": "only a mild non-statistically significance difference"}, {"measurement": "EHEC colonization, ileum and cecum", "setting": "EHEC; 20 mg/kg", "value": "no differences between treated and untreated animals"}, {"measurement": "EHEC growth", "setting": "EHEC strain 8624 [1]", "value": "does not hinder growth; also recorded: does not kill or hinder EHEC growth"}, {"measurement": "reduction of F. tularensis SCHU-S4 recovered from macrophages", "setting": "[2]", "value": 10, "unit": "fold"}, {"measurement": "toxicity against bacterial cells", "setting": "[3]", "value": "no toxicity against bacterial cells"}, {"measurement": "reduction of S. typhimurium cfus recovered from spleens and livers", "setting": "[4]", "value": "~10", "unit": "fold"}, {"measurement": "survival of infected mice 24 hours after infection", "setting": "[4]", "value": 80, "unit": "%"}, {"measurement": "survival of infected mice up to day 12", "setting": "[4]", "value": 20, "unit": "%"}, {"measurement": "expression of F. tularensis virulence genes, including qseC", "setting": "[5]", "value": "decreased"}, {"measurement": "binding of norepinephrine to QseC", "setting": "QseC [6]; 5 pM LED209", "value": "inhibits binding; also recorded: directly antagonized"}, {"measurement": "binding of norepinephrine to QseC", "setting": "QseC [6]; 5 fM LED209", "value": "does not"}, {"measurement": "EHEC AE lesion formation on cultured epithelial cells", "setting": "EHEC AE lesion formation; 5 pM", "value": "abolished"}, {"measurement": "AE lesions (pedestals)", "setting": "EHEC AE lesion formation; 5 μM and 5 pM", "value": "There are no pedestals"}, {"measurement": "AUC versus dose", "setting": "[7]; [15]", "value": "increases proportionally with dose"}, {"measurement": "linearity of pharmacokinetics", "setting": "[7]; [15]", "value": "linear"}, {"measurement": "bioavailability", "setting": "[7]; female, CD-1, mouse, plasma, oral, 20 mg/kg", "value": "~70", "unit": "%"}, {"measurement": "oral bioavailability (in words)", "setting": "[7]; mice", "value": "orally bioavailable"}, {"measurement": "pathology of duodenum, colon, liver, kidney, spleen and heart sections", "setting": "[8]", "value": "did not reveal any observable pathology"}, {"measurement": "mice weights", "setting": "[8]; vs vehicle", "value": "no significant differences"}, {"measurement": "organ weights", "setting": "[8]; vs vehicle", "value": "no significant differences in the organ weights"}, {"measurement": "secretion of EspA and EspB", "setting": "EHEC strain 8624 [9]", "value": "inhibited the secretion"}, {"measurement": "QseC autophosphorylation", "setting": "QseC [10]; in response to 50 μM epinephrine, 5 pM LED209", "value": "inhibited"}, {"measurement": "expression of the sifA virulence gene", "setting": "sifA virulence gene", "value": "diminished"}, {"measurement": "S. typhimurium growth in vitro", "setting": "[11]", "value": "does not hinder growth; also recorded: did not influence"}, {"measurement": "deaths of mice treated with LED209 alone", "setting": "[12]; female, C3H HeN, po, 20 mg/kg", "value": "none of the mice treated with LED209 alone died"}, {"measurement": "survival of infected mice at 175 hours post-infection", "setting": "[12]", "value": "60% and 75%"}, {"measurement": "overt toxicity", "setting": "[12]; po, 20 mg/kg", "value": "no overt toxicity"}, {"measurement": "survival of infected mice 9 days post-infection", "setting": "[12]; po, 20 mg/kg", "value": 80, "unit": "%"}, {"measurement": "block of activation by β-adrenergic-specific agonists (cAMP generation)", "setting": "[13]; 5 μM with dobutamine, terbutaline or BRL37344", "value": "nor does it block the activation"}, {"measurement": "activation of β adrenergic receptors (cAMP generation)", "setting": "[13]; 5 μM, no agonist", "value": "does not activate any of the 3 classes of β adrenergic receptors"}, {"measurement": "interference with adrenergic signaling", "setting": "[13]; live cell-based assays", "value": "does not interfere with mammalian adrenergic signaling; also recorded: not influence signaling"}, {"measurement": "QseC-dependent virulence gene expression in response to AI-3", "setting": "[14]", "value": "inhibited"}, {"measurement": "QseC-dependent virulence gene expression in response to epinephrine", "setting": "[14]", "value": "inhibited"}, {"measurement": "expression of the stxAB genes", "setting": "[14]", "value": "decreases"}, {"measurement": "trigger the EHEC SOS response", "setting": "[14]", "value": "does not"}, {"measurement": "F. tularensis growth", "setting": "F. tularensis strain LVS", "value": "does not hinder growth"}]}
{"smiles": "Cc1ccc(N(CC2=NCCN2)c2cccc(O)c2)cc1", "note": "[phentolamine, reference compound]", "values": [{"measurement": "binding of norepinephrine to QseC", "setting": "QseC [6]; 50 μM adrenergic antagonist", "value": "inhibited; also recorded: antagonizes this binding"}, {"measurement": "QseC autophosphorylation", "setting": "QseC [10]; adrenergic antagonist", "value": "block QseC autophosphorylation"}]}
{"smiles": "CC(C)NCC(O)COc1cccc2ccccc12", "note": "(centres unmarked) [propranolol, reference compound]", "values": [{"measurement": "binding of norepinephrine to QseC", "setting": "QseC [6]; 50 μM adrenergic antagonist", "value": "has no effect on QseC"}]}
